From patent US4125500A, “Cyclic phosphites of sugar alcohols and polymers stabilized therewith” (Hoechst Aktiengesellschaft, priority 1976, dated 1978)

Assays:
[1] = stability to hydrolysis (boiling in deionized water, titration of liberated phosphorous acid); format: physicochemical
Experimental: The stability to hydrolysis was tested according to the process disclosed in DT-OS 2,144,181, pages 7/8. 5.0 g each of the respective phosphite were boiled for 20 and 60 minutes in 100 ml of deionized water. The mixture was then allowed to cool, filtered to remove residues, if any, and in the filtrate the liberated phosphorous acid was titrated with 0.1N KOH against bromophenol blue.
In the following table is indicated the degree of hydrolysis determined under the specified conditions as quotient of the actual consumption of KOH and the theoretically possible consumption with a complete hydrolysis.

[2] = dynamic heat stability (rolling stability) in PVC, discoloration of rough sheet; settings: 180° C, two roll mill, 0.5 part phosphite
Experimental: (§1) The parts in the following description are parts by weight.
(§2) Each time 100 parts of a mass polyvinyl chloride having a K value of 60 were intimately mixed with
0.2 part of 2-phenyl-indole,
3.0 parts of epoxidized soybean oil
0.3 part of stearyl stearate
0.5 part of glycerol monostearate and
(§3) 0.5 part of the respective phosphite of the invention.
To measure the dynamic heat stability (rolling stability) the mixtures were rolled on a two roll mill at 180° C. and with 20 revolutions per minute. At intervals of 10 minutes samples were taken from the rough sheet and the color of the samples was compared with the colors of a proper color chart. Rolling was continued until the rough sheet had turned black.
In the color chart used the individual notes have the following meaning:
4 = dark yellow-brown color

[3] = static heat stability (furnace stability) in PVC, time until black coloration; settings: heating cabinet with air circulation, 0.5 part phosphite
Experimental: as §1, §2
0.2 part of 2-phenyl-indole,
3.0 parts of epoxidized soybean oil
0.3 part of stearyl stearate
0.5 part of glycerol monostearate and
as §3
In order to measure the static heat stability (furnace stability) a rough sheet was prepared as described above and the sheet was rolled for a further 10 minutes at 180° C. Flat samples having a diameter of about 30 mm were punched out of the rough sheet removed from the mill and having a thickness of about 0.5 mm, the samples were wrapped in aluminum foil and heated to 180° C. in a heating cabinet with air circulation. At intervals of 10 minutes each a sample was taken from the cabinet and the color thereof was compared with that of the color chart.

[4] = 20 minutes boiling in deionized water
[5] = boiling deionized water, 20 min
[6] = 60 minutes boiling in deionized water

degree of hydrolysis after 20 minutes [1, 5]	degree of hydrolysis after 60 minutes ([1]; boiling deionized water, 1 h)	Molecule	degree of hydrolysis after 20 minutes [1, 4]	dynamic (rolling) stability, discoloration of rough sheet after a rolling time of 10' [2]	dynamic (rolling) stability, discoloration of rough sheet after a rolling time of 20' [2]	dynamic (rolling) stability, discoloration of rough sheet after a rolling time of 30' [2]	dynamic (rolling) stability, discoloration of rough sheet after a rolling time of 40' [2]	dynamic (rolling) stability, discoloration of rough sheet after a rolling time of 50' [2]	dynamic (rolling) stability, discoloration of rough sheet after a rolling time of 60' [2]	dynamic (rolling) stability, discoloration of rough sheet after a rolling time of 70' [2]	dynamic (rolling) stability, discoloration of rough sheet after a rolling time of 80' [2]	static (furnace) stability, black coloration at 180° C after [3]	degree of hydrolysis after 60 minutes [1, 6]
		Tristearyl-sorbityl diphosphite monophosphate [Example 25]	9 % of theory										
		c1ccc(OP(Oc2ccccc2)Oc2ccccc2)cc1 [triphenyl phosphite, reference compound]	84 % of theory	1	2	2-3	5					50 '	100 % of theory
7 % of theory	23 % of theory	Tri-behenyl-mannityl triphosphite [Example 5]		1	1-2	2	2	3	3	4	5		
		CCCCCCCCCCCCCCCCCCOP1OCC2(CO1)COP(OCCCCCCCCCCCCCCCCCC)OC2 (stereo not drawn) [distearyl-pentaerthrityl-diphosphite, distearyl-pentaerythritol diphosphite, reference compound]	55 % of theory	2-3	2-3	3	3	4	5			50 '	68 % of theory
		distearyl-monododecyl-mercapto-sorbityl triphosphite [Example 23]		2	3	3	3	3-4	4	5		60 '	
		Tri-stearyl-dulcityl-triphosphite [Example 3]		1	1-2	2	3	4	5			60 '	
		trisnonylphenyl phosphite [reference compound]	57 % of theory	1	2	2-3	3	5				40 '	92 % of theory
5 % of theory	10 % of theory	Tri-stearyl-mannityl-triphosphite [Example 2]		1	1-2	2	2-3	3	3	4	4		
7 % of theory	11 % of theory	Di-behenyl-erythrityl diphosphite [Example 8]		1	1-2	1-2	2	3	4	5		60 '	
		distearyl-sorbityl diphosphite [Example 10]		1	1-2	2	3	4	5			60 '	

Molecule	degree of hydrolysis after 20 minutes [1, 5]	degree of hydrolysis after 60 minutes ([1]; boiling deionized water, 1 h)	degree of hydrolysis after 20 minutes [1, 4]	dynamic (rolling) stability, discoloration of rough sheet after a rolling time of 10' [2]	dynamic (rolling) stability, discoloration of rough sheet after a rolling time of 20' [2]	dynamic (rolling) stability, discoloration of rough sheet after a rolling time of 30' [2]	dynamic (rolling) stability, discoloration of rough sheet after a rolling time of 40' [2]	dynamic (rolling) stability, discoloration of rough sheet after a rolling time of 50' [2]	dynamic (rolling) stability, discoloration of rough sheet after a rolling time of 60' [2]	dynamic (rolling) stability, discoloration of rough sheet after a rolling time of 70' [2]	dynamic (rolling) stability, discoloration of rough sheet after a rolling time of 80' [2]	static (furnace) stability, black coloration at 180° C after [3]	degree of hydrolysis after 60 minutes [1, 6]
Tri-behenyl-sorbityl triphosphite [Example 4]	10 % of theory			1	1-2	2	2	3	3	4	5		
Tri-stearyl-sorbityl triphosphite [Example 1]	7 % of theory	17 % of theory		1	1-2	2	2-3	3	3	4	4		
